Measurements taken from US5625031A, “Peptide inhibitors of the p33^cdk2 and p34^cdc2 cell cycle regulatory kinases and human papillomavirus E7 oncoprotein” (Bristol-Myers Squibb Company, priority 1994, dated 1997).
Where two headings read alike, the source gives them in different places. Where a SMILES comes first, the peptide text is derived from it. Where no end group is shown, it is not given here.

Columns and labels:
p34^cdc2 [1] = target: T1, p34^cdc2 (Homo sapiens, UniProt P06493); experiment: Histone H1 kinase activity of p107 30mer-sepharose bound versus immunoprecipitated p34^cdc2; type: biochemical; set-up: endogenous in cells; host or cells: HeLa
T1 sequence (P06493 whole entry): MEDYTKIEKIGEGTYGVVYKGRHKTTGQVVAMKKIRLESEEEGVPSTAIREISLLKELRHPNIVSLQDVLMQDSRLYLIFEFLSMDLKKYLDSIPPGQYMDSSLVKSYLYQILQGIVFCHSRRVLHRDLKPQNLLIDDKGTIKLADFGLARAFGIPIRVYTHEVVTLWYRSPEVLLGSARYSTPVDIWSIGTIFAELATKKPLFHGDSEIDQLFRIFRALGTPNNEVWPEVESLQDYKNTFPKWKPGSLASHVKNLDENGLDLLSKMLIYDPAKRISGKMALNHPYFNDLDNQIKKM
Procedure: (§1) Assay of p34^cdc2 Kinase Activity: Histone H1 kinase reactions were performed in 50 mM Tris, pH 8.0, 10 mM MgCl2, 0.5 mM DTT, 1 mM EGTA plus 0.1 mM ATP, 1 μCi γ-[^32 P]-ATP and 10 μg histone H1 (Boeringer Mannheim), and a source of p34^cdc2. Reactions were incubated at 30° C. for 20 minutes and stopped by the addition of protein gel sample buffer. Kinase reactions were separated by SDS-PAGE (12.5% gel). The bands were detected by autoradiography and the amount of ^32 P incorporated was quantitated using an Ambis Radioanalytic Imaging System.
In order to examine the effect of binding of p34^cdc2 to p107 30mer-sepharose on p34^cdc2 kinase activity, histone H1 kinase activities associated with p107 30mer-sepharose and immunoprecipitated p34^cdc2 were compared as follows. p34^cdc2 was bound to p107 30mer-sepharose as described in Example 2. Histone H1 kinase reactions were performed using either immunoprecipitated or p107 30mer-sepharose bound p34^cdc2. The amount of p34^cdc2 bound to p107 30mer-sepharose was compared with that contained within the immune complex by western blot. Two times the amount of immunoprecipitated p34^cdc2 used in the kinase reaction was blotted to facilitate easier detection. The amount of p34^cdc2 associated with the p107 30mer-sepharose was determined by densitometry to be ≥50 time greater than contained within the immune complexes.

p34^cdc2 [2] = target: T1, p34^cdc2; experiment: Peptide inhibition of p34^cdc2 immune complex histone H1 kinase activity; type: biochemical; set-up: endogenous in cells; host or cells: HeLa; conditions: for inhibition at 50 µM: 50 μM peptide, p34^cdc2 immune complex from HeLa cells, histone H1 substrate, read-out: p34^cdc2 Inhib. (%)
Procedure: (§2) HeLa Cell Lysates: HeLa cell extracts served as a source of p34^cdc2 and p33^cdk2 and were prepared as follows. HeLa cells were lysed in 20 mM N-[2-hydroxyethyl]piperazine-N'-[2-[…]] (HEPES), pH 7.0, 150 mM NaCl, 5 mM sodium vanadate, 10 mM Na4 P2 O7, 1 mM ZnCl2, 2 mM ethylene-diaminetetraacetic acid (EDTA), 2 mM ethylene glycol-bis(β-aminoethyl ether)-N,N,N',N'-tetraacetic acid (EGTA), 1 mM dithiothreitol (DTT), 0.25% (v:v) NP-40, 1 mM Benzamidine, 1 mM phenylmethylsulfonyl fluoride (PMSF) and 20 μg/ml each: N2 S2 O3, leupeptin, Antipan and Pepstatin, followed by centrifugation to remove cell debris.
Immunoprecipitation of p34^cdc2 : Immunoprecipitation of p34^cdc2 from HeLa cell extracts was performed using previously reported procedures (Harlow et al. (1988) in: Antibodies: A Laboratory Manual, ed. Harlow and Lane, Cold Spring Harbor: Cold Spring Harbor Laboratory, pp 421-470) and anti-p34^cdc2 antibody, G6 (Gibco, BRL). Immunoprecipitation by this method yields an activated kinase complex (Draetta et al. (1988), Cell 54:17-26).
as §1
As a further test of the association of p107 with p34^cdc2, and to define the minimal sequence necessary for interaction with p34^cdc2, the effect of p107 peptides on the p34^cdc2 immune complex histone H1 kinase activity was assessed. Both amino- and carboxy-terminal deletions were introduced into the original 30 amino acid peptide (see Table 1). The peptides were synthesized by standard methods and purified by HPLC. Immune complexes were formed as described in Example 4 and resuspended in kinase buffer plus 50 μM of the respective peptide solubilized in N,N-dimethylformamide, or an equal volume of solvent. After incubating the reactions for 15 minutes on ice, histone H1 and γ-[^32 P]-ATP were added and the kinase assays were performed and quantitated as described in Example 4.
The binding affinity of the 9mer peptide for p34^cdc2 was approximated by relating the percent inhibition of histone H1 kinase activity to peptide concentration. Reactions were performed as described in Example 4. The percent inhibition was quantitated using an Ambis Radioanalytic Imaging System. The percent inhibition was plotted versus the peptide concentration. In calculating a binding constant, it was assumed that the concentration of substrate and peptide were in vast excess of the p34^cdc2 protein, which was assumed to be limiting in the reaction.

p34^cdc2 [3] = target: T1, p34^cdc2; experiment: ELISA based competition assay: p34^cdc2 kinase from cell extracts binding to a p107 30mer coated plate; set-up: endogenous in cells; HeLa per the general methods
Excerpt: An ELISA based assay was developed to measure the activity of p107 peptides and their derivatives. A 96-well cluster plate coated with the p107 30mer binds to p34^cdc2 kinase from cell extracts. This binding is easily detectable with anti-p34^cdc2 antibodies and can be used to quantitate the affinity of the p107 wild type and mutant peptides for the p34^cdc2 kinase in addition to the kinase inhibition assay described in Example 7. A summary of all modifications to the original p107 peptides and their effect on binding and kinase inhibition is presented in Table 1. The affinity of the p107 9mer peptide for p34^cdc2 kinase is approximately 10 μM as measured by the ELISA based competition assay, which is in agreement with the binding constant approximated from the kinase inhibition assay as described in Example 7.

HPV18-E7 protein = target: T2, HPV18-E7 protein (Human papillomavirus type 18, UniProt P06788); experiment: biochemical; type: binding
T2 construct: made in house
T2 sequence (P06788 whole entry): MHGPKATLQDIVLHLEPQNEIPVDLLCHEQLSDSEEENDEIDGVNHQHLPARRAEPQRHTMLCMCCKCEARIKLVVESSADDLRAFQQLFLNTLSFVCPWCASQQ
Procedure: The association of bacterially expressed HPV18-E7 protein with the p107 30mer peptide was analyzed using an ELISA assay. In the experiment depicted in FIG. 3A, a 96-well cluster plate was coated with p107 30mer peptide and incubated with increasing concentration of a MBP-E7 fusion protein or the MBP protein as a control. […] In the experiment depicted in FIG. 3B, MBP-E7 fusion protein (100 ng) was incubated with a p107 30mer peptide-coated plate in the presence of increasing concentrations of free p107 9mer peptide.

HPV16-E7 protein = HPV16-E7 protein (Human papillomavirus type 16, UniProt P03129); conditions: CaSki cell extract, western blot
Chain of HPV16-E7 protein (P03129 whole entry, the tested form may be a part): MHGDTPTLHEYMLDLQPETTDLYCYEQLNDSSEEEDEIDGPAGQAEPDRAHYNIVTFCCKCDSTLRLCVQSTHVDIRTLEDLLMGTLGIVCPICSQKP
Excerpt: Rb and p107 form specific complexes with the adenovirus E1A oncoprotein and Rb forms a similar complex with the E7 oncoprotein human papillomavirus (HPV). In order to determine whether the p107 30mer peptide domain and Rb may interact with other tumor suppressor proteins or other cellular and viral ligands, p107 30mer peptide binding to cellular and bacterially expressed human papillomavirus (HPV)-E7 protein was examined. p107 30 amino acid peptide-sepharose, prepared as described in Example 2, was incubated with CaSki cell (HPV-16 positive cervical carcinoma) extract and assayed for the binding of E7 protein.

p34^cdc2 [4] = target: T1, p34^cdc2; experiment: p107 30mer-sepharose pull-down from HeLa cell lysate, western blot with anti-p34^cdc2 antibody; type: binding; set-up: endogenous in cells; host or cells: HeLa
Procedure: as §2
In order to test whether the α-helix II domain is involved in the interaction of Rb, p107 and cyclin E with p34^cdc2, a 30 amino acid peptide from p107 (residues 692-721: […] [SEQ ID NO:11]) encompassing α-helix II, was synthesized and assayed for its ability to associate with p34^cdc2. […] The concentration of 30mer linked to the bead was 0.85 μmole/ml as determined by HPLC. […] The bound proteins were eluted with increasing concentrations of NaCl, separated by sodium dodecyl sulfate-polyacrylamidegel electrophoresis (SDS-PAGE) (12.5% gel) and transferred to polyvinylidene difluoride (PVDF) membranes. p34^cdc2 was detected by probing the membrane with anti-p34^cdc2 antibody, G6 (Gibco, BRL) (see, Draetta et al. (1988), supra).

[5] = Table 1 binding, assay not given, taken as ELISA competition for p34^cdc2 binding, read-out: IC50

Row | Molecule | inhibition at 50 µM (p34^cdc2 [2]) [%] | IC50 (p34^cdc2 [3]; [5]) [µM] | also measured
1 | CC[C@H](C)[C@H](NC(=O)[C@H](Cc1ccc(O)cc1)NC(=O)[C@H](Cc1ccccc1)NC(=O)[C@H](C)NC(=O)[C@H](CS)NC(=O)[C@H](CC(C)C)NC(=O)[C@H](CC(C)C)NC(=O)[C@H](CC(C)C)NC(=O)[C@H](CCC(N)=O)NC(=O)[C@H](CC(=O)O)NC(=O)[C@H](CC(C)C)NC(=O)[C@H](Cc1c[nH]cn1)NC(=O)[C@H](CCCNC(=N)N)NC(=O)[C@H](CC(=O)O)NC(=O)[C@H](CCCCN)NC(=O)[C@H](CCSC)NC(=O)[C@H](CC(C)C)NC(=O)[C@H](CC(=O)O)NC(=O)[C@@H]1CCCN1C(=O)[C@H](CS)NC(=O)[C@H](Cc1c[nH]cn1)NC(=O)[C@@H](NC(=O)[C@H](CC(C)C)NC(=O)[C@@H](NC(=O)[C@H](Cc1ccccc1)NC(=O)[C@H](CCC(=O)O)NC(=O)[C@@H](N)Cc1ccccc1)[C@@H](C)O)C(C)C)C(=O)N[C@@H](CCSC)C(=O)N[C@@H](C)C(=O)N[C@@H](CCCCN)C(=O)O [30mer] (H-FEFTLVHCPDLMKDRHLDQLLLCAFYIMAK-OH) | – | – | specific activity of peptide bound enzyme relative to the specific activity of the immune complex (p34^cdc2 [1]; normalized for the amount of p34^cdc2 protein): 1.4%
2 | C[C@H](NC(=O)[C@@H](N)CS)C(=O)N[C@@H](Cc1ccccc1)C(=O)N[C@@H](Cc1ccc(O)cc1)C(=O)O [NC4mer, CAFY] (H-CAFY-OH) | 0 | – | –
3 | AFYIMAK [N7mer, AFYIMAK] | 0 | – | –
4 | CAFYI [NC5mer, CAFYI] | 82 | 13 | –
5 | CAFYIGSPKK [NC5mer-SPKK, CAFYIGSPKK] | 80 | – | –
6 | DLMKDRHLDQLLLCAFYIMAK [21mer] | 70 | – | –
7 | KDRHLDQLLLCAFYIMAK [18mer, KDRHLDQLLLCAFYIMAK] | 80 | – | –
8 | LCAAYIMAK [715FA, LCAAYIMAK] | 0 | > 100 | –
9 | LCAFAIMAK [716YA, LCAFAIMAK] | 0 | 40 | –
10 | LCAFFIMAK [716YF, LCAFFIMAK] | 80 | 25 | –
11 | LCAFY [C5mer, LCAFY] | 0 | – | –
12 | LCAFYI [C6mer, LCAFYI] | 79 | – | –
13 | LCAFYIM [C7mer, LCAFYIM] | 70 | – | –
14 | LCAFYIMAK [9mer, LCAFYIMAK] | 90 | 9 | Kd (HPV18-E7 protein): ~0.001 µM; Kd (p34^cdc2 [2]; percent inhibition plotted versus peptide concentration, FIG. 2, read-out: kd calculated from the point of 50% inhibition of histone H1 kinase activity): ~10 µM; Kd (p34^cdc2 [3]; ELISA based competition assay, read-out: affinity for p34^cdc2 kinase): ~10 µM
15 | LCAFYIMQK [719AQ, LCAFYIMQK] | 75 | – | –
16 | LCAFYKMAK [717IK, LCAFYKMAK] | 0 | > 100 | –
17 | LCAKYIMAK [715FK, LCAKYIMAK] | 0 | > 100 | –
18 | LCAYYIMAK [715FY, LCAYYIMAK] | 20 | 45 | –
19 | LCEFYIMAK [714AE, LCEFYIMAK] | 0 | 23 | –
20 | LDQLLLCAFYIMAK [14mer, LDQLLLCAFYIMAK] | 80 | – | –
21 | LFAFYIMAK [713CF, LFAFYIMAK] | 60 | 15 | decrease in the peptide's ability to inhibit histone H1 kinase activity (p34^cdc2 [2]; versus 9mer): 30%
22 | PKKKRKVCAFYI [SV-NC5mer, PKKKRKVCAFYI] | 0 | – | –
23 | RKRCAFYI [PKG-NC5mer, RKRCAFYI] | 0 | – | –
24 | RRCAFYI [RR-NC5mer, RRCAFYI] | 0 | – | –
25 | SPKKGCAFYI [SPKK-NC5mer, SPKKGCAFYI] | 0 | – | –
26 | YIMAK [N5mer, YIMAK] | 0 | – | IC50 (p34^cdc2 [3]): > 100 µM
27 | p107 30mer-sepharose: p107 30mer covalently linked to CH-activated sepharose 4B (FEFTLVHCPDLMKDRHLDQLLLCAFYIMAK; cysteine pairing not given here; also: covalently linked to CH-activated sepharose 4B) | – | – | binding to HPV16-E7 protein (HPV16-E7 protein): did bind; binding to p34^cdc2 (p34^cdc2 [4]; HeLa cell lysate, western blot): binds; stability of the complex with p34^cdc2 to NaCl elution (p34^cdc2 [4]; elution with increasing concentrations of NaCl): stable to 2M NaCl; amount of p34^cdc2 associated relative to that within the immune complexes (p34^cdc2 [1]; western blot densitometry): ≥ 50 time greater
